Where a name gives a salt, the structure may show the parent alone.

As usually defined, the IC50 is the point on the concentration scale where inhibition reaches its midpoint.

The assay deals with T1, SF9 affinity purified rat FPT (Rattus norvegicus, UniProt Q02293+Q04631).
T1 construct: made in house; host or cells: Sf9 insect cells
Nature of the assay: PFT (FPT) inhibitory activity assay, radiolabeled farnesyl pyrophosphate and biotinyl peptide, streptavidin beads. It is filed as biochemical. To be noted: HEPES buffer pH 7.4, 30° C., 30 minutes; read-out: FTase IC50. As for the experimental part:
The PFT or FPT inhibitory activity of compounds of the present invention were assayed in HEPES buffer (pH 7.4) containing 5 mM potassium phosphate and 20 μM ZnCl2. The solution also contained 5 mM DTT (dithiothreitol), 5 mM MgCl2, and 0.1% PEG 8000. Assays were performed in 96 well plates (Wallec) and employed solutions composed of varying concentrations of a compound of the present invention in 10% DMSO (dimethylsulfoxide). […] After incubation at 30° C. for 30 minutes, the reaction was terminated by diluting the reaction 2.5-fold with a stop buffer containing 1.5 M magnesium acetate, 0.2 M H3PO4, 0.5% BSA (bovine serum albumin), and strepavidin beads (Amersham) at a concentration of 1.3 mg/mL. […] The assay was also carried out without 5 mM potassium phosphate.
Regarding “6-((1S)-2-Indazolyl-1-phenylethoxy)-5-amino-2,3,4-trihydronaphthalen-1-one [Compound 37]”, the half-inhibitory concentration (IC50) was found to be 13 nM. On to `CCC(C)OCc1c(O[C@H](Cn2ccnc2)c2ccccc2)ccc2c1CCCC2=O` (mixture of isomers) [Compound 19d, (±)5-sec-Butoxymethyl-6-((S)-2-imidazol-1-yl-1-phenyl-ethoxy)-3,4-dihydro-2H-naphthalen-1-one], for which the IC50 was 1.9 nM. With `O=C1CCC(c2ccccc2)c2cc(OC(Cn3ccnc3)c3ccccc3)ccc21` (racemic) [Compound 48, (±)-6-(2-imidazolyl-O-phenylethoxy)-4-phenyl-2,3,4-trihydronaphthalen-1-one] the figure was 35 nM; with `C=CCc1c(OC(Cn2ccnc2)c2ccccc2)ccc2c1CCCC2=O` (racemic) [Compound 49, (±)-6-(2-imidazolyl-1-phenylethoxy)-5-prop-2-ethyl-2,3,4-trihydronaphthalen-1-one], 17 nM. As for `C=C(C)Cc1c(OC(Cn2ccnc2)c2ccccc2)ccc2c1CCCC2=O` (racemic) [Compound 52, (±)-6-(2-Imidazolyl-1-phenylethoxy)-5-(2-methylprop-2-enyl)-2,3,4-trihydronaphthalen-1-one], the figure is 8 nM.

Regarding `C=CCc1c(OC(Cn2ccnc2)c2ccccc2Cl)ccc2c1CCCC2=O` (racemic) [Compound 59, (±)-6-[1-(2-Chlorophenyl)-2-imidazolylethoxy]-5-prop-2-enyl-2,3,4-trihydronaphthalen-1-one], the half-inhibitory concentration (IC50) came out at 12 nM. With `C=CCc1c(OC(Cn2ccnc2)c2c(Cl)cccc2Cl)ccc2c1CCCC2=O` (racemic) [Compound 60, (±)-6-[0-(2,6-Dichlorophenyl)-2-imidazolylethoxy]-5-prop-2-enyl-2,3,4-trihydronaphthalen-1-one, Trifluoroacetic Acid] the figure was 29 nM; with `C=CCc1c(OC(Cn2ccnc2)c2cccs2)ccc2c1CCCC2=O` (racemic) [Compound 61, (±)-6-(2-imidazolyl-1-(2-thienyl)ethoxy)-5-prop-2-ethyl-2,3,4-trihydronaphthalen-1-one], 7 nM. As for `Cc1nccn1CC(Oc1ccc2c(c1CCc1ccccc1)CCCC2=O)c1ccccc1` (racemic) [Compound 63o, (±)-6-[2-(2-Methyl-imidazol-yl)-1-phenyl-ethoxy]-5-phenethyl-3,4-dihydro-2H-naphthalen-1-one], the figure is 4 nM; as for `O=C1CCCc2c1ccc(O[C@H](Cn1ccnc1)c1ccccc1)c2C[S+]([O-])c1ccccn1` (mixture of isomers) [Compound 142, 6-((S)-2-Imidazol-1-yl-1-phenyl-ethoxy)-5-(pyridine-2-sulfinylmethyl)-3,4-dihydro-2H-napthalen-1-one], 0.55 nM.

In the case of `CC(C)[S+]([O-])Cc1c(O[C@H](Cn2ccnc2)c2ccccc2)ccc2c1CCCC2=O` (mixture of isomers) [Compound 143, 6-((S)-2-Imidazol-1-yl-1-phenyl-ethoxy)-5-(propane-2-sulfinylmethyl)-3,4-dihydro-2H-napthalen-1-one], the IC50 was found to be 1.4 nM. As for `O=C1CCCc2c1ccc(O[C@H](Cn1ccnc1)c1cccnc1)c2CCc1ccccc1` (single isomer, unassigned) [Compound 63a], the figure is 0.4 nM; as for `O=C1CCCc2c1ccc(O[C@H](Cn1ccnc1)c1ccccc1)c2CSc1ccccc1` [Compound 1, 6-((1S)-2-Imidazolyl-1-phenylethoxy)-5-(phenylthiomethyl)-2,3,4-trihydronaphthalen-1-one], 0.3 nM; as for `O=C1CCCc2c1ccc(O[C@H](Cn1ccnc1)c1ccccc1)c2C[S+]([O-])c1ccccc1` (some centres unmarked) [Compound 2], 3 nM. With `O=C1CCCc2c1ccc(O[C@H](Cn1ccnc1)c1ccccc1)c2CS(=O)(=O)c1ccccc1` [Compound 3] the figure was 0.3 nM; with `COC(=O)c1ccccc1SCc1c(O[C@H](Cn2ccnc2)c2ccccc2)ccc2c1CCCC2=O` [Compound 4, Methyl 2-{[2-((1S)-2-imidazolyl-1-phenylethoxy)-5-oxo-6,7,8-trihydronaphthyl]methylthio}benzoate], 0.3 nM. With `O=C(O)c1ccccc1SCc1c(O[C@H](Cn2ccnc2)c2ccccc2)ccc2c1CCCC2=O` [Compound 5, 2-{[2-((1S)-2-Imidazolyl-1-phenylethoxy)-5-oxo-6,7,8-trihydronaphenyl]methylthio}benzoic acid] the figure was 2 nM; with `CC(C)SCc1c(O[C@H](Cn2ccnc2)c2ccccc2)ccc2c1CCCC2=O` [Compound 6, 6-((S)-2-Imidazol-1-yl-1-phenyl-ethoxy)-5-isopropylsulfanylmethyl-2,3,4-trihydronaphthalen-1-one], 0.4 nM. For the compound `CC(C)S(=O)(=O)Cc1c(O[C@H](Cn2ccnc2)c2ccccc2)ccc2c1CCCC2=O` [Compound 7], the IC50 came to 6 nM. For the compound `O=C1CCCc2c1ccc(O[C@H](Cn1ccnc1)c1ccccc1)c2CSc1ccncc1` [Compound 8], the IC50 came out at 3 nM. With `O=C1CCCc2c1ccc(O[C@H](Cn1ccnc1)c1ccccc1)c2CSc1ccccn1` [Compound 9, 6-((1S)-2-Imidazolyl-1-phenylethoxy)-5-(2-pyridylthiomethyl)-2,3,4-trihydronaphthalen-1-one] the figure was 4 nM; with `O=C1CCCc2c1ccc(O[C@H](Cn1ccnc1)c1ccccc1)c2CS(=O)(=O)c1ccccn1` [Compound 10, 6-(1S)-2-Imidazolyl-1-phenylethoxy)-5-[(2-pyridylsulfonyl)methyl]-2,3,4-trihydronaphthalen-1-one hydrochloride], 0.3 nM; with `O=C1CCCc2c1ccc(O[C@H](Cn1ccnc1)c1ccccc1)c2CSc1cccc2ccccc12` [Compound 10a, 6-((S)-2-Imidazol-1-yl-1-phenyl-ethoxy)-5-(naphthalen-1-ylsulfanylmethyl)-3,4-dihydro-2H-naphthalen-1-one], 30.5 nM. As for `COC(=O)CSCc1c(O[C@H](Cn2ccnc2)c2ccccc2)ccc2c1CCCC2=O` [Compound 10b, [2-(2-Imidazol-1-yl-1(S)-phenyl-ethoxy)-5-oxo-5,6,7,8-tetrahydro-naphthalen-1-ylmethylsulfanyl]-acetic acid methyl ester], the figure is 2.5 nM. As for `O=C1CCCc2c1ccc(O[C@H](Cn1ccnc1)c1ccccc1)c2CSCc1ccc(Cl)c(Cl)c1` [Compound 10c, 5-(3,4-Dichloro-benzylsulfanylmethyl)-6-((1S)-2-imidazol-1-yl-1-phenyl-ethoxy)-3,4-dihydro-2H-naphthalen-1-one], the figure is 5.3 nM; as for `O=C1CCCc2c1ccc(O[C@H](Cn1ccnc1CO)c1ccccc1)c2CS(=O)(=O)c1ccccc1` [Compound 10d, (S)-6{2-[2-(Hydroxymethyl)-1H-imidazol-1-yl]-1-phenylethoxy}-5-[(phenylsulfonyl)methyl]-3,4-dihydro-1(2H)-naphthalenone], 5.5 nM. With `O=C1CCCc2c1ccc(O[C@H](Cn1ccnc1)c1ccccc1)c2CNc1ccccc1` [Compound 11], the IC50 is 0.2 nM. With `CN(Cc1c(O[C@H](Cn2ccnc2)c2ccccc2)ccc2c1CCCC2=O)c1ccccc1` [Compound 12] the figure was 4 nM. As for `COC(=O)c1ccc(N(C)Cc2c(O[C@H](Cn3ccnc3)c3ccccc3)ccc3c2CCCC3=O)cc1` [Compound 13, Methyl 4-({[2-((1S)-2-imidazolyl-1-phenylethoxy)-5-oxo(6,7,8-trihydronaphthyl)]methyl}methylamino)benzoate], the figure is 2 nM. Regarding `CC(C)OCc1c(O[C@H](Cn2ccnc2)c2ccccc2)ccc2c1CCCC2=O` [Compound 15, hydrochloride], the half-inhibitory concentration (IC50) was determined as 0.2 nM. In the case of `O=C1CCCc2c1ccc(O[C@H](Cn1ccnc1)c1ccccc1)c2COCc1ccccc1` [Compound 16, 6-((1S)-2-Imidazolyl-1-phenylethoxy)-5-[(phenylmethoxy)methyl]-2,3,4-trihydronaphthalen-1-one], the IC50 came to 0.8 nM. As for `O=C1CCCc2c1ccc(O[C@H](Cn1ccnc1)c1ccccc1)c2COC1CCCC1` [Compound 17], the figure is 0.3 nM. As for `C=CCOCc1c(O[C@H](Cn2ccnc2)c2ccccc2)ccc2c1CCCC2=O` [Compound 18, 6-((1S)-2-imidazolyl-1-phenylethoxy)-5-(prop-2-enyloxymethyl)-2,3,4-trihydronaphthalen-1-one], the figure is 8 nM; as for `CC(C)COCc1c(O[C@H](Cn2ccnc2)c2ccccc2)ccc2c1CCCC2=O` [Compound 19a, 6-((S)-2-Imidazol-1-yl-1-phenyl-ethoxy)-5-isobutoxymethyl-1-3,4-dihydro-2H-naphthalen-1-one], 1.9 nM; as for `CCCOCc1c(O[C@H](Cn2ccnc2)c2ccccc2)ccc2c1CCCC2=O` [Compound 19b, 6-((S)-2-Imidazol-1-yl-1-phenyl-ethoxy)-5-propoxymethyl-3,4-dihydro-2H-naphthalen-1-one], 3.6 nM.

As to `CCC(CC)OCc1c(O[C@H](Cn2ccnc2)c2ccccc2)ccc2c1CCCC2=O` [Compound 19c, 5-(1-Ethyl-propoxymethyl)-6-((S)-2-imidazol-1-yl-1-phenyl-ethoxy)-3,4-dihydro-2H-naphthalen-1-one], the IC50 is 1.4 nM. `O=C1CCCc2c1ccc(O[C@H](Cn1ccnc1)c1ccccc1)c2CCc1ccccc1` [Compound 20]: the half-maximal inhibitory concentration (IC50) came out at 0.4 nM.

`O=C1CCCc2c1ccc(O[C@H](Cn1ccnc1)c1ccccc1)c2-c1ccc2c(c1)OCO2` [Compound 21, 5-(2H-Benzo[d]-1,3-dioxolan-5-yl)-6-((1S)-2-imidazolyl-1-phenylethoxy)-2,3,4-trihydronaphthalen-1-one]: the IC50 is 8 nM.

The values above are taken from US6943183B2 (Pfizer Inc, priority 2000, dated 2005).
